Data on four molecules can be found in patent publication US6881409B2, “Compositions and methods for promoting nerve regeneration” (Oregon Health and Science University, priority 1997, dated 2005).

In the test the test system is SH-SY5Y human neuroblastoma cells. Nature of the test: Neurite outgrowth (neuritic process length) of NGF-differentiated SH-SY5Y cells. The test is classed as cell-based. As to the method: Cell cultures. SH-SY5Y human neuroblastoma cells were maintained in DMEM medium (GIBCO) supplemented with 10% fetal calf serum (SIGMA), 50 IU/mL penicillin, and […] streptomycin (GIBCO) at 37° C. in 7% CO^2. Cells were plated in six-well plates at 1×10^6 cells/well and treated with […] aphidicolin (SIGMA). At five days, cells were washed, treated with nerve growth factor (NGF) (Boehringer Mannheim, Indianapolis, Ind.) at 10 ng/mL (to induce process outgrowth) in the presence or absence of FK506 (1 and 10 nM) (Calbiochem-Novabiochem Int'l., La Jolla, Calif.) and/or geldanamycin (0.1, 1, and 10 nM) (Calbiochem-Novabiochem, La Jolla, Calif.). Media was changed at 96 hours and replaced with fresh media with the compounds (NGF plus FK506 and/or geldanamycin) for an additional 72 hours (total time, 168 hours). The top 50% of axonal lengths were selected for statistical analysis. All experiments were run in duplicate wells and repeated at least twice for reproducibility.
Light morphometry of neurite lengths. For analysis of process length, cells 20 fields per well) were randomly photographed at 72 and 168 hours. Neurite lengths were measured on photographic prints using a Houston Instrument HI-PAD digitizing tablet connected to an IBM XT computer with appropriate software (Bioquant IV, R&M Biometrics, Nashville, Tenn.); only those processes greater than two times the cell body length were measured. Data from identically treated wells were not different and were therefore combined. […] Histograms were compared using a Mann-Whitney U test, which makes no assumptions about the shape of the distribution.
Preparation of FK506 and geldanamycin. FK506 (mol. wt. 822) and geldanamycin (mol. wt. 561) were dissolved in DMEM medium.
In a first set of experiments, SH-SY5Y neuroblastoma cells were plated in 6-well plates with DMEM plus 15% FCS and differentiated with NGF (10 ng/ml). The effects of various concentrations of geldanamycin and FK506 on neurite growth, alone and in combination, were tested.

Turning to `C=CC[C@@H]1/C=C(\C)C[C@H](C)C[C@H](OC)[C@H]2O[C@@](O)(C(=O)C(=O)N3CCCC[C@H]3C(=O)O[C@H](/C(C)=C/[C@@H]3CC[C@@H](O)[C@H](OC)C3)[C@H](C)[C@@H](O)CC1=O)[C@H](C)C[C@@H]2OC` [FK506], the Mean Length of Top 50% of Neuritic Processes amounted to 77.8 µm (Table 1, FK506 10 nM + NGF 10 ng/mL, 168 hours); 89.9 µm (Table 2, FK506 1 nM + NGF 10 ng/mL, 168 hours); 82.7 µm (Table 2, FK506 10 nM + NGF 10 ng/mL, 168 hours).
In the case of estrogen, the “effect on neurite outgrowth with FK506” value (10 nM with FK506 10 nM) is “additive effect”. The “neurite outgrowth” value (10 nM, without NGF) is reported as “increased neurite outgrowth”.
Regarding `COC1=C2C[C@@H](C)C[C@H](OC)[C@H](O)[C@@H](C)/C=C(\C)[C@H](OC(N)=O)[C@@H](OC)/C=C\C=C(/C)C(=O)NC(=CC1=O)C2=O` [Geldanamycin, geldanamycin], the Mean Length of Top 50% of Neuritic Processes reads like this: (Table 1, geldanamycin 1 nM + NGF 10 ng/mL, 168 hours) 64 µm; (Table 1, geldanamycin 10 nM + NGF 10 ng/mL, 168 hours) 54.8 µm; (Table 2, geldanamycin 0.1 nM + NGF 10 ng/mL, 168 hours) 98.1 µm. For the same molecule, the “effect on length of the processes” value (first set, geldanamycin 10 nM in the presence of NGF) is on record as “no effect”.

B1: NGF: nerve growth factor (Boehringer Mannheim), used to induce process outgrowth (protein, UniProt P01139 122-241, looked up)
Beta-nerve growth factor: SSTHPVFHMGEFSVCDSVSVWVGDKTTATDIKGKEVTVLAEVNINNSVFRQYFFETKCRASNPVESGCRGIDSKHWNSYCTTTHTFVKALTTDEKQAAWRFIRIDTACVCVLSRKATRRG
As to B1, the Mean Length of Top 50% of Neuritic Processes (Table 1 (first set), NGF 10 ng/mL only, 168 hours after treatment) came out at 54 µm and the Mean Length of Top 50% of Neuritic Processes (Table 2 (second set), NGF 10 ng/mL only, 168 hours) was 70.4 µm. Also, where the note is “first set, NGF 10 ng/mL, 168 hours”, the “mean length of the processes compared to untreated cells” value is listed as “more than doubled”. Moreover, the “mean neuritic lengths compared to untreated control cells” value (second set, NGF-treated cells) is “more than double”.
